In EP1268487B1, “TRICYCLIC PROTEIN KINASE INHIBITORS” (Wyeth, priority 2000, dated 2001):

Molecular target: T1, p60^c-src (Homo sapiens, UniProt P12931)
T1 construct: purchased Upstate Biotechnologies
Assay: Src kinase assay (ELISA format)
Format: biochemical
Method: Inhibitors of p60^c-src (partially purified preparation purchased from Upstate Biotechnologies) tyrosine kinase activity are analyzed in an ELISA format. The Boehringer Mannheim Tyrosine Kinase Assay Kit (Catalog number 1-534505) with a cdc2 substrate peptide containing Tyr15 is used for the assay. HRP-conjugated anti-phosphotyrosine is used to detect phosphorylated peptide via a color reaction. Conditions recommended by the manufacturer are employed.
Reaction conditions: Five microliter aliquots of each compound prepared fresh at the time of the assay are added as a solution in 10mM HEPES pH 7.5, 10% DMSO to the reaction well. Thirty-five microliters of reaction mix containing Src, buffer and peptide/bovine serum albumin mix are added to the compound wells and incubated at 30°C for 10 minutes (reaction buffer: 50mM TrisHCl pH 7.5, 10mM MgCl2, 0.1mM EGTA, 0.5mM Na3VO4). The reaction is started by addition of 10 microliters of ATP, incubated at 30°C for 1 hour, and stopped by addition of 20 microliters of 0.5M EDTA. The reaction mixture with the phosphorylated peptide was then transferred to a streptavidin-coated microtiter plate (provided in the kit) and allowed to bind for 20 minutes. […] Substrate (provided in the kit) was added and absorbance at 405nm was measured.
Activity was determined as % inhibition as calculated by the formula: (1 - Abs/Abs(max)) x 100 = % inhibition. […]

T1 sequence (P12931 whole entry): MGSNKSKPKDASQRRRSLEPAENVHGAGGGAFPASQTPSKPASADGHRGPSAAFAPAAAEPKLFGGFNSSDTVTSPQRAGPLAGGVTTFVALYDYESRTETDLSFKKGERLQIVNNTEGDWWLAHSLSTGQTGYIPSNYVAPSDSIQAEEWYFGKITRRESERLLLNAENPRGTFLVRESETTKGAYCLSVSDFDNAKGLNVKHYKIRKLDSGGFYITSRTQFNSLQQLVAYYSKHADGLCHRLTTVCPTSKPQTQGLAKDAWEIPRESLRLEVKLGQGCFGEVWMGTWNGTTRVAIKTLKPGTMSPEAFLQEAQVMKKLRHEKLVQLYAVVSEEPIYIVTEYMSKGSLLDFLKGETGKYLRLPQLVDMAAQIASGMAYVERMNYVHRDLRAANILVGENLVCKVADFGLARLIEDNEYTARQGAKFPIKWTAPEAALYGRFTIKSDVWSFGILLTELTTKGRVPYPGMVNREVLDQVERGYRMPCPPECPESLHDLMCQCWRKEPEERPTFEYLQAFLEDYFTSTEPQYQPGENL

- IC50: 1010 nM
Structure (SMILES): CCN1CCN(CCCCN2CCOc3cc4c(Nc5ccc(Cl)cc5Cl)c(C#N)cnc4cc32)CC1 [Example 24, 9-(2,4-Dichloroanilino)-4-[4-(4-ethyl-1-piperazinyl)butyl]-3,4-dihydro-2H-[1,4]oxazino[2,3-g]quinoline-8-carbonitrile]
